Measurements reported in ChEMBL document CHEMBL4808207, “Macrocyclic Peptides as a Novel Class of NNMT Inhibitors: A SAR Study Aimed at Inhibitory Activity in the Cell” (ACS Med Chem Lett, 2021).
Bridge positions count the residues as written; N and C are the ends. Square brackets hold non-standard residues; d marks the D form. Peptide text beside a SMILES is read from it. Phe(4-CONH2) = NC(=O)c1ccc(C[C@H](N)C(=O)O)cc1; NMeY = CN[C@@H](Cc1ccc(O)cc1)C(=O)O; NMeF = CN[C@@H](Cc1ccccc1)C(=O)O; 3Pal = N[C@@H](Cc1cccnc1)C(=O)O; Tic = O=C(O)[C@@H]1Cc2ccccc2CN1

Assays:
[1] = molecular target: T1, Nicotinamide N-methyltransferase (Mus musculus, UniProt O55239); assay: Inhibition of mouse recombinant NNMT using nicotinamide and SAM as substrate assessed as reduction in 1-methyl-nicotinamide formation incubated for 2 hrs by RapidFire Mass spectroscopy
T1 sequence (O55239 whole entry): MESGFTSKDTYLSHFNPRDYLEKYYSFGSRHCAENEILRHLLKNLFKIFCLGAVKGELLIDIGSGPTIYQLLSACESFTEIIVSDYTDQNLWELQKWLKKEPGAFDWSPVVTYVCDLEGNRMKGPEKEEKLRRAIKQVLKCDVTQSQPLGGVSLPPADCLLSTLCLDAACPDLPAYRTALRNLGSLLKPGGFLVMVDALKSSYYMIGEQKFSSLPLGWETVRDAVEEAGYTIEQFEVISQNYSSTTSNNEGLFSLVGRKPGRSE

[2] = molecular target: T1, Nicotinamide N-methyltransferase; assay: Inhibition of mouse recombinant NNMT using nicotinamide and SAM as substrate assessed as reduction in 1-methyl-nicotinamide formation incubated for 22 to 24 hrs by RapidFire Mass spectroscopy
[3] = molecular target: T2, Nicotinamide N-methyltransferase (Homo sapiens, UniProt P40261); assay: Inhibition of human recombinant NNMT using nicotinamide and SAM as substrate assessed as reduction in 1-methyl-nicotinamide formation incubated for 22 to 24 hrs by RapidFire Mass spectroscopy
T2 sequence (P40261 whole entry): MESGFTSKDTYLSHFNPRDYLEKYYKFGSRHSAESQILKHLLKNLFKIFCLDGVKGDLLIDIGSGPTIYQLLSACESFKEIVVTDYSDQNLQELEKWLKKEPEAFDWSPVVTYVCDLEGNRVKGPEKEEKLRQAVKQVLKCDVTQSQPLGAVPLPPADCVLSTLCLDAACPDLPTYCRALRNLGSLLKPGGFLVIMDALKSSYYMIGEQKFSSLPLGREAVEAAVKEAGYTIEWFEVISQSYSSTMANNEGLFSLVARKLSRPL

Row | SMILES | IC50 [1] | IC50 [2] | IC50 [3]
1 | CC[C@H](C)[C@@H]1NC(=O)[C@H](CC(C)C)NC(=O)[C@@H]2CCCN2C(=O)[C@H](Cc2ccccc2)NC(=O)CSC[C@@H](C(N)=O)NC(=O)CNC(=O)[C@H](CCCCN)NC(=O)[C@H](CCCNC(=N)N)NC(=O)[C@@H]2CCCN2C(=O)[C@H](Cc2ccccc2)NC1=O ({CH2CO}-FPLIFPRKGC-NH2; thioether N-10) | > 30 µM |  | 
2 | CC[C@H](C)[C@@H]1NC(=O)[C@H](CC(C)C)NC(=O)[C@@H]2CCCN2C(=O)[C@H](Cc2ccccc2)NC(=O)CSC[C@@H](C(=O)NCC(N)=O)NC(=O)CNC(=O)[C@H](CCCCN)NC(=O)[C@H](CCCNC(=N)N)NC(=O)[C@@H]2CCCN2C(=O)[C@H](Cc2ccccc2)NC1=O ({CH2CO}-FPLIFPRKGCG-NH2; thioether N-10) | 0.243 µM |  | 
3 | CN1C(=O)[C@@H]2CCCN2C(=O)[C@H](Cc2ccccc2)NC(=O)CSC[C@@H](C(N)=O)NC(=O)[C@H](Cc2ccc(C(N)=O)cc2)NC(=O)[C@@H]2Cc3ccccc3CN2C(=O)[C@@H]2CCCN2C(=O)[C@H](CCCNC(=N)N)NC(=O)[C@@H]1Cc1ccc(O)cc1 ({CH2CO}-FP[NMeY]RP[Tic][Phe(4-CONH2)]C-NH2; thioether N-8) |  | > 30 µM | > 30 µM
4 | CN1C(=O)CSC[C@@H](C(N)=O)NC(=O)[C@H](Cc2ccc(C(N)=O)cc2)NC(=O)[C@@H]2Cc3ccccc3CN2C(=O)[C@@H]2CCCN2C(=O)[C@H](Cc2c[nH]cn2)NC(=O)[C@H](Cc2ccc(O)cc2)NC(=O)[C@@H]2CCCN2C(=O)[C@@H]1Cc1ccccc1 ({CH2CO}-[NMeF]PYHP[Tic][Phe(4-CONH2)]C-NH2; thioether N-8) |  | > 100 µM | > 100 µM
5 | CN1C(=O)CSC[C@@H](C(N)=O)NC(=O)[C@H](Cc2ccc(C(N)=O)cc2)NC(=O)[C@@H]2Cc3ccccc3CN2C(=O)[C@@H]2CCCN2C(=O)[C@H](Cc2cccnc2)NC(=O)[C@H](Cc2ccc(O)cc2)NC(=O)[C@@H]2CCCN2C(=O)[C@@H]1Cc1ccccc1 ({CH2CO}-[NMeF]PY[3Pal]P[Tic][Phe(4-CONH2)]C-NH2; thioether N-8) |  | > 100 µM | > 100 µM
